This is an account of results in patent US7772425B2, “Vitamin D receptor modulators” (Eli Lilly and Company, priority 2002, dated 2010).

Values joined by “and” are separate entries in the source; they are usually repeats but may differ in a detail not shown here. Equal entries are not always repeated. Where two headings read alike, the source gives them in different places.

The subject of one series is rat osteocalcin promoter. As to the kind of experiment: OCN (osteocalcin) promoter assay in RG-15 (ROS 17/2.8) cells. The series is classed as cell-based. The note with it: 48 hr treatment, luciferase. On the procedure:
3. The OCN (Osteocalcin) Promoter Assay
The OCN Promoter Assay is an indicator and marker for osteoporosis. […] Preferred assay results are less than 50 nM.
(3) Materials and Method for The OCN Promoter Assay:
The activation of osteocalcin by VDR ligands was evaluated in a rat osteoblast-like cell line RG-15 (ROS 17/2.8) stably expressing rat osteocalcin promoter fused with luciferase reporter gene. […] Confluent RG-15 cells maintained in DMEM/F-12 medium (3:1) containing 5% FBS, 300 μg/ml G418 and at 37° C. under 5% CO2/95% air atmosphere were trypsinized (0.25% trypsin) and plated into white opaque 96-well cell culture plates (25000 cells/well). After 24 hr, cells (in DMEM/F-12 medium+2% FBS) were treated with various concentrations of compounds, dissolved in DMSO. The final DMSO concentration remained at 0.01% (v/v). After 48 hr treatment, the medium was removed, cells were lysed with 50 μl of lysis buffer (From Luciferase reporter assay system, Roche Diagnostics, Indianapolis, Ind.) and assayed for luciferase activity using the Luciferase Reporter Gene Assay kit from Boehringer Mannheim as per manufacturer's specifications.

Series [1] concerns KERtr cells (Human skin keratinocyte). As to the kind of experiment: Keratinocyte proliferation assay. The series is classed as cell-based. The note with it: BrdU incorporation, read-out: Kera. Prolif. IC50. How it is done:
5. The Keratinocyte Proliferation Assay
This Assay is indicative for the treatment of psoriasis.
(5) The Keratinocyte Proliferation Assay:
KERtr cells (Human skin keratinocyte transformed with a retrovirus vector, obtained from ATCC) were plated in 96-well flat-bottomed plates (3000 cells/well) in 100 μl keratinocyte serum free medium supplemented with bovine pituitary extract in the absence of EGF (Life Technologies, Rockville, Md.) and incubated at 37° C. for two days. The cells were treated with various concentrations of VDR ligands (ten-fold serial dilution from 10,000 nM to 0.1 nM in triplicate), dissolved in 100 μl keratinocyte serum free medium supplemented with bovine pituitary extract in the absence of EGF and incubated at 37° C. for 72 hr. BrdU (5-bromo-2′-deoxyuridine) incorporation was analyzed as a measure of DNA replication (Cell proliferation ELISA kit, Roche Diagnostics, Indianapolis, Ind.) and absorbance was measured at 405 nm. Potency values (IC50) values were determined as the concentration (nM) of compound that elicited a half-maximal response.

In a further series the test system is female DBF mice. The series is described as follows: Mouse hypercalcemia assay. The series is classed as in vivo. Particulars: orally via gavage for 6 days; serum ionized calcium 6 hours after last dosing. The text has this: 4. The Mouse Hypercalcemia Assay
(4) Materials and Method for The Mouse Hypercalcemia Assay: […]

A further series relates to IL-10. The series is described as follows: human IL-10 induction assay in PBMCs. In kind it is cell-based. Particulars: TPA/PHA treated human PBMCs, IL-10 immunoassay of supernatant. The text has this: The evaluation of the novel compounds of the invention for psoriasis is done using the Keratinocyte Proliferation Assay in combination with other assays that measure inhibition of IL-2 production and stimulation of IL-10 production in peripheral blood mononuclear cells (PBMCs).
6. The IL-10 Induction Assay
This is an in vitro efficacy assay for psoriasis, abscess and adhesion. Psoriasis involves both keratinocytes and immune cells. IL-10 is a unique cytokine because it is anti-inflammatory and immunosuppressive. This assay tells us whether a VDRM is able to function as an agonist in PBMCs (primary blood mononuclear cells) or not. A lower EC50 value is desirable in this assay since a compound with a lower EC50 value will be a better agonist in PBMCs.
(6) Materials and Method for human IL-10 Induction Assay:
Isolation of peripheral blood mononuclear cells (PBMCs):
• A. Collect 50 ml of human blood and dilute with media, RPMI-1640. • B. Prepare sterile tubes with ficol. • C. Add diluted blood to tubes. • D. Centrifuge. • E. Discard the top layer and collect the cells from middle layer. • F. Divide all cells into four tubes and add media. • G. Centrifuge. • H. Aspirate off media and resuspend. • I. Collect all cells • J. Centrifuge. at 1200 rpm for 10 minutes. • K. Resuspend in RPMI-1640 with 2% FBS and count cells Stimulation of PBMC: • L. Prepare TPA in DMSO. • M. Dissolve PHA in water. • N. Plate TPA/PHA treated PBMCs in well plates. • O. Incubate. Treatment: • P. Prepare all compound dilutions in plain RPMI-1640 media. • Q. Add diluted compound. • R. Incubate. Sample Collection and assay: • S. Remove all the cells by centrifugation and assay the supernatant for IL-10 by immunoassay. • 1) T. Perform IL-10 assay using anti-human IL-10 antibody coated beads, as described by the manufacturer (Linco Research Inc., St. Charles, Mo.).

The mark [2] stands for this setting: Homo sapiens, Keratinocyte, 72 h.

In the case of `CCC(CC)(c1ccc(OCC(O)C(C)(C)C)c(C)c1)c1ccc(C(=O)O)c(Cl)c1` (racemic) [Ex. 39, 3′-[3-methyl-4-(2-hydroxy-3,3-dimethylbutoxy)phenyl]-3′-(3-chloro-4-carboxyphenyl)pentane], the EC50 in the series on rat osteocalcin promoter amounted to 61 nM; with rat osteocalcin promoter (Rattus norvegicus, 48 h) it was 74 nM. In addition, in series [1] (setting [2]), the IC50 was 508 nM.
As to `CCC(CC)(c1ccc(OC(C)C(O)C(C)(C)C)c(C)c1)c1ccc(C(=O)OC)c(C)c1` (single isomer, unassigned) [Ex. 10Db, 3′-[4-(2-hydroxy-1,3,3-trimethylbutoxy)-3-methylphenyl]-3′-[4-methoxycarbonyl-3-methylphenyl]pentane], in the series with rat osteocalcin promoter, the EC50 turned out to be 15 nM. Also, in series [1] (72 hr), the IC50 came to 1000 nM.
Turning to `CCC(CC)(c1ccc(OCC(O)C(C)(C)C)c(C)c1)c1ccc(C(=O)NCCS(C)(=O)=O)c(C)c1` (single isomer, unassigned) [Ex. 15A, 4-{1-ethyl-1-[4-(2-hydroxy-3,3-dimethylbutoxy)-3-methylphenyl]propyl}-N-(2-methanesulfonylethyl)-2-methylbenzamide], the EC50 in the series with rat osteocalcin promoter is 35 nM and 43 nM. The IC50 in series [1] (setting [2]) is 117 nM. The “Mouse Hypercal” value in the series with female DBF mice was 1500 µg/kg/day.
For the compound `CCC(CC)(c1ccc(OCC(O)C(C)(C)C)c(C)c1)c1ccc(C(=O)N(C)CC(=O)O)c(C)c1` (single isomer, unassigned) [Ex. 18, [(4-{1-ethyl-1-[4-(2-hydroxy-3,3-dimethyl-butoxy)-3-methyl-phenyl]-propyl}-2-methyl-benzoyl)-methyl-amino]-acetic acid], the 50% inhibitory concentration (IC50) in series [1] (72 hr) came to 1000 nM; with IL-10, 47 nM. In addition, the “Mouse Hypercal” value in the series on female DBF mice is 1000 µg/kg/day.
Turning to `CCC(CC)(c1ccc(OCC(O)C(C)(C)C)c(C)c1)c1ccc(C(=O)NC(C)(C)C(=O)O)c(C)c1` (single isomer, unassigned) [Ex. 20B, 2-(4-{1-Ethyl-1-[4-(2-hydroxy-3,3-dimethyl-butoxy)-3-methyl-phenyl]-propyl}-2-methyl-benzoylamino)-2-methyl-propionic acid], the IC50 in series [1] (setting [2]) was found to be 3 nM; in the series on IL-10 (Homo sapiens, PBMC), 4 nM. The “Mouse Hypercal” value in the series with female DBF mice is 300 µg/kg/day.
On to `CCC(CC)(c1ccc(C(=O)O)cc1)c1ccc(OCC(O)C(C)(C)C)c(C)c1` (single isomer, unassigned) [Ex. 22, 4-{1-Ethyl-1-[4-(2-hydroxy-3,3-dimethylbutoxy)-3-methylphenyl]-propyl}benzoic acid], for which the IC50 in series [1] (72 hr) turned out to be 4 nM; with IL-10 (Homo sapiens, PBMC), 39 nM. Also, the “Mouse Hypercal” value in the series on female DBF mice is 1000 µg/kg/day.
In the case of `CCC(CC)(c1ccc(C(=O)O)cc1)c1ccc(OCC(O)C(C)(C)C)c(C)c1` (single isomer, unassigned) [Ex. 23, 4-{1-Ethyl-1-[4-(2-hydroxy-3,3-dimethylbutoxy)-3-methylphenyl]-propyl}benzoic acid], the values for the IC50 (in series [1] (72 hr); in the series with IL-10) were 40 nM and 27 nM, respectively. For the same compound, in the series on female DBF mice, the “Mouse Hypercal” value was 3000 µg/kg/day.
Turning to `CCC(CC)(c1ccc(OC(C)C(O)C(C)(C)C)c(C)c1)c1ccc(C(=O)Nc2nnn[nH]2)c(C)c1` (single isomer, unassigned) [Ex. 29, 3′-[4-(2-hydroxy-1,3,3-trimethylbutoxy)-3-methylphenyl]-3′-[4-(tetrazol-5-ylaminocarbonyl)-3-methylphenyl]pentane], the IC50 stood at 49 nM in series [1] (72 hr) and 153 nM with IL-10 (Homo sapiens, PBMC). In the series with female DBF mice, the “Mouse Hypercal” value was 3000 µg/kg/day.
`CCC(CC)(c1ccc(C(=O)O)cc1)c1ccc(OCC(O)C(C)(C)C)c(Cl)c1` (single isomer, unassigned) [Ex. 36, 3′-[3-chloro-4-(2-hydroxy-3,3-dimethylbutoxy)phenyl]-3′-[4-carboxyphenyl]pentane]: the IC50 in series [1] (72 hr) was determined as 139 nM. Besides, the “Mouse Hypercal” value in the series with female DBF mice was more than 300 µg/kg/day.
Take `CCC(CC)(c1ccc(OC(C)C(O)C(C)(C)C)c(C)c1)c1ccc(C(=O)N(C)CC(=O)O)c(C)c1` (single isomer, unassigned) [Ex. 53, [(4-{1-Ethyl-1-[4-(2-hydroxy-1,3,3-trimethyl-butoxy)-3-methyl-phenyl]-propyl}-2-methyl-benzoyl)-methyl-amino]-acetic acid]: the IC50 in series [1] (72 hr) amounted to 224 nM. In addition, the “Mouse Hypercal” value with female DBF mice was more than 3000 µg/kg/day.
`CCC(CC)(c1ccc(OCC(=O)C(C)(C)C)c(C)c1)c1ccc(OCC(=O)C(C)(C)C)c(C)c1` [DD, reference compound]: the 50% effective concentration (EC50) in the series with rat osteocalcin promoter (Rattus norvegicus, 48 h) stood at 31.1 nM. Further, the IC50 in series [1] (setting [2]) amounted to 1060 nM. Further, in the series with female DBF mice, the “Mouse Hypercal” value is 1000 µg/kg/day.
As to `CCC(CC)(c1ccc(OCC(O)C(C)(C)C)c(C)c1)c1ccc(C(=O)NS(C)(=O)=O)c(C)c1` (stereo not shown) [Ex. 5], in the series on rat osteocalcin promoter (Rattus norvegicus, 48 h), the EC50 was 42 nM. Moreover, in series [1] (setting [2]), the IC50 is 375 nM. The “Mouse Hypercal” value in the series with female DBF mice was 100 µg/kg/day.
For `CCC(CC)(c1ccc(CCC(=O)N(C)C)c(C)c1)c1ccc(OCC(=O)C(C)(C)C)c(C)c1` [Ex. 7, 3′-[4-(2-oxo-3,3-dimethylbutoxy)-3-methylphenyl]-3′-[4-(2-dimethylcarbamoylethyl)-3-methylphenyl]pentane], the EC50 in the series with rat osteocalcin promoter (Rattus norvegicus, 48 h) came to 4 nM. Also, in series [1] (setting [2]), the IC50 turned out to be 18 nM.
In the case of `CCC(CC)(c1ccc(CCC(=O)N(C)C)c(C)c1)c1ccc(OCC(O)C(C)(C)C)c(C)c1` (stereo not shown) [Ex. 8, 3′-[4-(2-hydroxy-3,3-dimethylbutoxy)-3-methylphenyl]-3′-[4-(2-dimethylcarbamoylethyl)-3-methylphenyl]pentane], the IC50 in series [1] (setting [2]) turned out to be 330 nM. Besides, in the series on female DBF mice, the “Mouse Hypercal” value was 100 µg/kg/day.
For `CCC(CC)(c1ccc(/C=C/C(=O)N(C)C)c(C)c1)c1ccc(OCC(O)C(C)(C)C)c(C)c1` (stereo not shown) [Ex. 9, 3′-[4-(2-hydroxy-3,3-dimethylbutoxy)-3-methylphenyl]-3′-[4-(2-dimethylcarbamoyl-t-ethylidene)-3-methylphenyl]pentane], the EC50 with rat osteocalcin promoter stood at 6 nM; in the series on rat osteocalcin promoter (Rattus norvegicus, 48 h), 7 nM. For the same compound, the IC50 in series [1] (setting [2]) is 985 nM.
In the case of `CCC(CC)(c1ccc(OCC(=O)C(C)(C)C)c(C)c1)c1ccc(C(=O)O)c(C)c1` [Ex. 17, 4-{1-[4-(3,3-dimethyl-2-oxobutoxy)-3-methylphenyl]-1-ethylpropyl}-2-methylbenzoic acid], in series [1] (setting [2]), the IC50 turned out to be 1000 nM. For the same compound, the “Mouse Hypercal” value in the series with female DBF mice is more than 3000 µg/kg/day.
`CCC(CC)(c1ccc(OC(C)C(O)C(C)(C)C)c(C)c1)c1ccc(C(=O)N[C@@H](C)C(=O)O)c(C)c1` (stereo partly shown) [Ex. 47, (L)-2-(4-{1-Ethyl-1-[4-(2-hydroxy-1,3,3-trimethyl-butoxy)-3-methyl-phenyl]-propyl}-2-methyl-benzoylamino)-propionic acid]: the IC50 in series [1] (setting [2]) is 1000 nM. In addition, in the series with female DBF mice, the “Mouse Hypercal” value is 3000 µg/kg/day.
Consider `CCC(CC)(c1ccc(OC(C)C(O)C(C)(C)C)c(C)c1)c1ccc(C(=O)N[C@H](C)C(=O)O)c(C)c1` (stereo partly shown) [Ex. 48, (D)-2-(4-{1-ethyl-1-[4-(2-hydroxy-1,3,3-trimethyl-butoxy)-3-methyl-phenyl]-propyl}-2-methyl-benzoylamino)-propionic acid], for which, in series [1] (72 hr), the IC50 amounted to 1000 nM. For the same compound, the “Mouse Hypercal” value in the series with female DBF mice is less than 1000 µg/kg/day.
